pIC50: −log10 of the molar value.
Key:
FGFR2 V564F = FGFR2 V564F (Homo sapiens, UniProt P21802, V564F); assay: FGFR mutant enzyme assay (HTRF KinEASE-TK), FGFR2 V564F; type: biochemical; settings: Table 4
From the text: (§1) (Catalogue number 62TK0PEC).

FGFR2 V564I = FGFR2 V564I (Homo sapiens, UniProt P21802, V564I); assay: FGFR mutant enzyme assay (HTRF KinEASE-TK), FGFR2 V564I; type: biochemical; settings: Table 4
From the text: as §1

FGFR2-WT = FGFR2-WT (Homo sapiens, UniProt P21802); assay: Phosphorylated FGFR2-WT (pFGFR2-WT) cell assay, KATOIII cells; type: cell-based; settings: Table 4
Chain of FGFR2-WT (P21802 22-821): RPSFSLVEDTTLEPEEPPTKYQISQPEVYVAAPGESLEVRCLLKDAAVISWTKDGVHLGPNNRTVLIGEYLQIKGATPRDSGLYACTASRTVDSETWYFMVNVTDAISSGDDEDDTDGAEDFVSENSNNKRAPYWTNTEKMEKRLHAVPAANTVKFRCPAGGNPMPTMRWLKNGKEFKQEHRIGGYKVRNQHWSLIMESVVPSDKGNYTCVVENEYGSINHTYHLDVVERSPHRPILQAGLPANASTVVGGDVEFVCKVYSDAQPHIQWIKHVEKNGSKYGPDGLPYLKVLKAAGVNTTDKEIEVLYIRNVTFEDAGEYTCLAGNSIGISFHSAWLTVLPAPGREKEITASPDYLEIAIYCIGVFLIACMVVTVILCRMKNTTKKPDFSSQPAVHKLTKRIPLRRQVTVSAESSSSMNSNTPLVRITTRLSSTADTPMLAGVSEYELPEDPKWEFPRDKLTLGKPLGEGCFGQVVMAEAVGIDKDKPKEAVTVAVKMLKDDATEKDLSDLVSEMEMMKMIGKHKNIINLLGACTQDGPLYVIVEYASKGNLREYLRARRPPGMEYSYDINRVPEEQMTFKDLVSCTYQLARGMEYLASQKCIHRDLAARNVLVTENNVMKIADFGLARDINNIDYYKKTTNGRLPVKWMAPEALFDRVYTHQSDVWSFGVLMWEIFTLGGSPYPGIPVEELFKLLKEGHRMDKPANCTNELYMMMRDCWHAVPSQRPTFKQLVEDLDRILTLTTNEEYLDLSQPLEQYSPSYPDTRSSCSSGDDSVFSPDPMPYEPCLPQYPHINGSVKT
Description: Phosphorylated FGFR2-WT (pFGFR2-WT) Cell Assay:
KATOIII cells were grown in the appropriate growth medium, IMDM supplemented with 20% fetal bovine serum. Cells were seeded into a 384-well at 1×10^5 cells/25 μL/well. Cells were treated with compound using three-fold serial dilutions at final concentrations ranging from 10 μM to 0.5 nM. Compound was incubated on cells for 1 hour at 37° C., 5% CO2.
Following the 1-hour incubation with compounds, cell lysates were prepared and phospho FGFR2 was measured using the HTRF Phospho-FGFR2 (TYR653/654) Detection Kits (CisBio, cat #64FGFR2Y6PEG). 8 μL of cell lysis buffer (4×) supplied with 1× Phospho and Total protein blocking reagent (CisBio, cat #64FGFR2Y6PEG, CisBio, cat #64KB1AAC) was then added to the wells. Cells were incubated with lysis buffer for 40 minutes at 4° C. under shaking conditions. Plates were centrifuged at 1500 rpm for 3 min and then 16 μL of cell lysate was transferred from the cell-culture plate to a small volume detection plate with the added premixed antibody solutions (4 μL) (CisBio, cat #64FGFR2Y6PEG). Plates were centrifuged at 1000 rpm for 1 min then incubated at 25° ° C. for 120 min, then overnight at 4° C. Plates were read on the EnVision multimode plate reader via HTRF dual wavelength detection. One hundred percent of control (POC) was determined using DMSO treated samples, and 0 POC was determined using the top concentration of a control compound. A 4-parameter logistic curve was fit to the POC values as a function of compound concentration to determine the IC50 value.

FGFR2 N549H = FGFR2 N549H (Homo sapiens, UniProt P21802, N549H); assay: FGFR mutant enzyme assay (HTRF KinEASE-TK), FGFR2 N549H; type: biochemical; settings: Table 4
Chain of FGFR2 N549H (P21802 399-821 N549H limits assumed): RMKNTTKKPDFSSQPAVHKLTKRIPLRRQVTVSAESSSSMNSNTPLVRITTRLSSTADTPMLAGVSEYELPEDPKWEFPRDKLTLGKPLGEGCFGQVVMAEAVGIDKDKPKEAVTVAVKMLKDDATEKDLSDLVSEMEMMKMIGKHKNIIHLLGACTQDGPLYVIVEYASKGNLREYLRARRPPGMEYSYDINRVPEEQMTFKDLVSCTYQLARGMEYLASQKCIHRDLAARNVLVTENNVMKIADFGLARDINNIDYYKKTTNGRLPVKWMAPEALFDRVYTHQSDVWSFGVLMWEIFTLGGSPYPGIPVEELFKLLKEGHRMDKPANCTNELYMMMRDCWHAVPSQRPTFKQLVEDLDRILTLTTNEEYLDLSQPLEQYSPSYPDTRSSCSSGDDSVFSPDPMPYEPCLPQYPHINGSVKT
From the text: as §1

FGFR2 = FGFR2 (Homo sapiens, UniProt P21802); assay: FGFR wild type enzyme assay (HTRF KinEASE-TK), FGFR2; settings: for pIC50: FGFR2 Enz, Table 4; for IC50: Enz FGFR2 (nM)
Chain of FGFR2 (P21802 399-821 limits assumed): as the sequence (P21802 399-821 N549H limits assumed) above, with H151N counted along it

Chain of FGFR2 V564I (P21802 399-821 V564I limits assumed): as the sequence (P21802 399-821 N549H limits assumed) above, with H151N, V166I counted along it
Chain of FGFR2 V564F (P21802 399-821 V564F limits assumed): as the sequence (P21802 399-821 N549H limits assumed) above, with H151N, V166F counted along it

Structure (SMILES) | pIC50 (FGFR2 V564F) | pIC50 (FGFR2 V564I) | pIC50 (FGFR2-WT) | pIC50 (FGFR2 N549H) | pIC50 (FGFR2) | IC50 (FGFR2) [nM] | IC50 (FGFR2; FGFR2 wild type enzyme assay) [nM]
N#Cc1cnn2cc(-c3cnn([C@H]4CCCNC4)c3)cc(Sc3ccccn3)c12 [Example 1, 6-[1-[(3S)-3-Piperidyl]pyrazol-4-yl]-4-(2-pyridylsulfanyl) pyrazolo[1,5-a]pyridine-3-carbonitrile] | 8.52 | 8.22 | 7.60 | 8.82 | 8.52 |  | 
CN[C@H]1CC[C@@H](n2ncc(-c3cc(Sc4ccccc4C#N)c4c(C#N)cnn4c3)c2C)CC1 [Example 117, -[(5-fluoro-2-methyl-4-pyridyl)sulfany1]-6-[5-methyl-1-(4-piperidyl)pyrazol-4-yl]pyrazolo[1,5-a]pyridine-3-carbonitrile] | 9.30 | 9.00 | 7.55 | 9.70 | 9.52 | 0.3 | 
Cc1nc(Sc2cc(-c3cnn(C4CCN(C)CC4)c3C)cn3ncc(C#N)c23)ccc1F [Example 128] | 8.05 | 7.92 | 7.39 | 8.40 | 9.92 | 5 | 
Cc1c(-c2cc(Sc3cccc(F)c3C#N)c3c(C#N)cnn3c2)cnn1C1CCNCC1 [Example 130, 4-(2-cyano-3-fluoro-phenyl)sulfanyl-6-[5-methyl-1-(4-piperidyl)pyrazol-4-yl]pyrazolo[1,5-a]pyridine-3-carbonitrile] | 8.40 | 8.30 | 6.93 | 8.52 | 9.00 | 2 | 
N#Cc1ccccc1Sc1cc(-c2cnn(CCC(=O)N3CCNCC3)c2)cn2ncc(C#N)c12 [Example 675, 4-((2-cyanophenyl)thio)-6-(1-(3-oxo-3-(piperazin-1-yl)propyl)-1H-pyrazol-4-yl)pyrazolo[1,5-a]pyridine-3-carbonitrile] |  |  |  |  |  |  | 0.6
Cc1c(-c2cc(Sc3ccc(F)cc3C#N)c3c(C#N)cnn3c2)cnn1CC[C@@H](O)CO [Example 676, (R)-4-((2-cyano-4-fluorophenyl)thio)-6-(1-(3,4-dihydroxybutyl)-5-methyl-1H-pyrazol-4-yl)pyrazolo[1,5-a]pyridine-3-carbonitrile] |  |  |  |  |  |  | 3
C[C@H](O)CN1CC[C@H](n2cc(-c3cc(Sc4ccccc4C#N)c4c(C#N)cnn4c3)cn2)C1 [Example 677, 4-((2-cyanophenyl)thio)-6-(1-((S)-1-((S)-2-hydroxypropyl)pyrrolidin-3-yl)-1H-pyrazol-4-y)pyrazolo[1,5-a]pyridine-3-carbonitrile] |  |  |  |  |  |  | 0.3
C[C@@H](O)CN1CC[C@H](n2cc(-c3cc(Sc4ccccc4C#N)c4c(C#N)cnn4c3)cn2)C1 [Example 678, 4-((2-cyanophenyl)thio)-6-(1-((S)-1-((R)-2-hydroxypropyl)pyrrolidin-3-yl)-1H-pyrazol-4-yl)pyrazolo[1,5-a]pyridine-3-carbonitrile] |  |  |  |  |  |  | 0.4
Cc1c(-c2cc(Sc3ccc(F)cc3C#N)c3c(C#N)cnn3c2)cnn1[C@H]1CC[C@H](OP(=O)(O)O)CC1 [Example 679, sodium (1r,4r)-4-(4-(3-cyano-4-((2-cyano-4-fluorophenyl)thio)pyrazolo [1,5-a]pyridin-6-yl)-5-methyl-1H-pyrazol-1-yl)cyclohexyl phosphate] |  |  |  |  |  |  | 1.6
Cc1c(-c2cc(Sc3ccc(F)cc3C#N)c3c(C#N)cnn3c2)cnn1[C@H]1CC[C@H](OC(=O)[C@@H](N)C(C)C)CC1 [Example 680, (1r,4S)-4-(4-(3-cyano-4-((2-cyano-4-fluorophenyl)thio)pyrazolo [1,5-a]pyridin-6-yl)-5-methyl-1H-pyrazol-1-yl)cyclohexyl L-valinate] |  |  |  |  |  |  | 1

From patent US20240270741A1 (Cogent Biosciences, Inc., priority 2023, published 2024)
